For one experiment, the target named is CDK2/Cyclin E1 (Homo sapiens, UniProt P24941). The experiment can be described thus: CDK2/Cyclin E1 Biochemical Assay (TR-FRET), 0.060 mM ATP. The settings on record: 0.15 μM Rb (Ser780)-biotin substrate, pH7.0, 60 min preincubation, 120 min reaction, room temperature. In short, it runs like this:
(§1)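 TR-FRET assay with 0.15 μM Rb (Ser780)-biotin substrate and 0-10 μM compound in 50 mM HEPES pH7.0, 50 mM MgCl2, 1 mM DTT. ATP was 0.060 mM for CDK2/Cyclin E1 and 0.015 mM for CDK1/Cyclin B1. Kinase was preincubated with compound 60 min, reacted 120 min at room temperature, and IC50 was fitted (four-parameter) from the 665/620 nm ratio.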

For a further experiment, the target named is CDK1/Cyclin B1 (Homo sapiens, UniProt P06493). Nature of the experiment: CDK1/Cyclin B1 Biochemical Assay (TR-FRET), 0.015 mM ATP. Conditions: 0.15 μM Rb (Ser780)-biotin substrate, pH7.0, 60 min preincubation, 120 min reaction, room temperature. The method in brief:
as §1

The structures appear in SMILES notation.

Chain of CDK1/Cyclin B1 (P06493 whole entry): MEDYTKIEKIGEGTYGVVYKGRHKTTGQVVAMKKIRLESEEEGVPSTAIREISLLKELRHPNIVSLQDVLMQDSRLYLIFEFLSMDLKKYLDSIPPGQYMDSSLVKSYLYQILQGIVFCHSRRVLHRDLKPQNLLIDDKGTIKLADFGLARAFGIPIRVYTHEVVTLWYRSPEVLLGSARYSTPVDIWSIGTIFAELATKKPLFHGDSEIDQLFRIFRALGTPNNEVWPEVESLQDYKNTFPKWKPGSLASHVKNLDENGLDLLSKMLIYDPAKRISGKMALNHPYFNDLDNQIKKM
Chain of CDK1/Cyclin B1 (P14635 whole entry partner): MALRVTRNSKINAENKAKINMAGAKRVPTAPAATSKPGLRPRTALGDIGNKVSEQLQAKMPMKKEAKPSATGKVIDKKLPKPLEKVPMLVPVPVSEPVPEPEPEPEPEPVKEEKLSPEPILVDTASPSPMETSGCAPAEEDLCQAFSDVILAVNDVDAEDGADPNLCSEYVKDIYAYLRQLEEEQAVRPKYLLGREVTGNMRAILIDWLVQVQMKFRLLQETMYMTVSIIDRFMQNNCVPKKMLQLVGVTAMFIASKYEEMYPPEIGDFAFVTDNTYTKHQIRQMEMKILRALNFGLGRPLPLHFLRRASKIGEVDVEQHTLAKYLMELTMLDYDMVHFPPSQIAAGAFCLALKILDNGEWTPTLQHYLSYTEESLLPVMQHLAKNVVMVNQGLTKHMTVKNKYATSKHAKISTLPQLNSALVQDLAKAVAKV

What is called IC50 is the midpoint of a concentration-inhibition curve. Higher therefore signals weaker potency. Take `CC(C)NC(=O)O[C@H]1CC[C@@H](c2cc(Nc3ccc4c(c3)CCNS4(=O)=O)n[nH]2)C1` (relative stereo) [Example 172, cis-3-(3-((1,1-dioxido-3,4-dihydro-2H-benzo[e][1,2]thiazin-6-yl)amino)-1H-pyrazol-5-yl)cyclopentyl isopropylcarbamate]: the IC50 against CDK2/Cyclin E1 was 0.7 nM; on CDK1/Cyclin B1, 14 nM.

Take `O=C(O[C@H]1CC[C@@H](c2cc(Nc3ccc4c(c3)CNS4(=O)=O)n[nH]2)C1)N1CCCC1` (relative stereo) [Example 174, cis-3-(3-((1,1-dioxido-2,3-dihydrobenzo[d]isothiazol-5-yl)amino)-1H-pyrazol-5-yl)cyclopentyl pyrrolidine-1-carboxylate]: the IC50 against CDK2/Cyclin E1 was found to be 6.5 nM; against CDK1/Cyclin B1 it was 136 nM.

In the case of `O=C(O[C@H]1CC[C@@H](c2cc(Nc3ccc4c(c3)CNS4(=O)=O)n[nH]2)C1)N1CCC(O)C1` (relative stereo) [Example 175, cis-3-(3-((1,1-dioxido-2,3-dihydrobenzo[d]isothiazol-5-yl)amino)-1H-pyrazol-5-yl)cyclopentyl 3-hydroxypyrrolidine-1-carboxylate], the results for the IC50 against CDK2/Cyclin E1 and against CDK1/Cyclin B1 were 10 nM and 359 nM, respectively.

With `CC1(O)CCN(C(=O)O[C@H]2CC[C@@H](c3cc(Nc4ccc5c(c4)CNS5(=O)=O)n[nH]3)C2)C1` (relative stereo) [Example 176, cis-3-(3-((1,1-dioxido-2,3-dihydrobenzo[d]isothiazol-5-yl)amino)-1H-pyrazol-5-yl)cyclopentyl 3-hydroxy-3-methylpyrrolidine-1-carboxylate], the IC50 amounted to 8 nM against CDK2/Cyclin E1 and 230 nM on CDK1/Cyclin B1.

Take `CC1(NC(=O)O[C@H]2CC[C@@H](c3cc(Nc4ccc5c(c4)CNS5(=O)=O)n[nH]3)C2)CC1` (relative stereo) [Example 177, cis-3-(3-((1,1-dioxido-2,3-dihydrobenzo[d]isothiazol-5-yl)amino)-1H-pyrazol-5-yl)cyclopentyl(1-methylcyclopropyl)carbamate]: the IC50 on CDK2/Cyclin E1 is 1.1 nM; against CDK1/Cyclin B1, 27 nM.

Consider `CCCNC(=O)O[C@H]1CC[C@@H](c2cc(Nc3ccc4c(c3)CNS4(=O)=O)n[nH]2)C1` (relative stereo) [Example 178, cis-3-(3-((1,1-dioxido-2,3-dihydrobenzo[d]isothiazol-5-yl)amino)-1H-pyrazol-5-yl)cyclopentyl propylcarbamate], for which the values for the IC50 at CDK2/Cyclin E1 and on CDK1/Cyclin B1 were 1.5 nM and 41 nM, respectively.

With `CC(C)NC(=O)O[C@H]1CC[C@@H](c2cc(Nc3cc(F)c4c(c3)S(=O)(=O)NC4)n[nH]2)C1` (relative stereo) [Example 179, cis-3-(3-((4-fluoro-1,1-dioxido-2,3-dihydrobenzo[d]isothiazol-6-yl)amino)-1H-pyrazol-5-yl)cyclopentyl isopropylcarbamate], the results for the IC50 at CDK2/Cyclin E1 and against CDK1/Cyclin B1 were 0.3 nM and 5.5 nM, respectively.

In the case of `COc1c(Nc2cc([C@@H]3CC[C@H](OC(=O)NC(C)C)C3)[nH]n2)ccc2c1S(=O)(=O)NC2` (relative stereo) [Example 180, cis-3-(3-((7-methoxy-1,1-dioxido-2,3-dihydrobenzo[d]isothiazol-6-yl)amino)-1H-pyrazol-5-yl)cyclopentyl isopropylcarbamate], the IC50 is 2.9 nM against CDK2/Cyclin E1 and 102 nM on CDK1/Cyclin B1.

Take `COc1c(Nc2cc([C@@H]3CC[C@H](OC(=O)NC(C)C)C3)[nH]n2)ccc2c1S(=O)(=O)NC2(C)C` (relative stereo) [Example 181, cis-3-(3-((7-methoxy-3,3-dimethyl-1,1-dioxido-2,3-dihydrobenzo[d]isothiazol-6-yl)amino)-1H-pyrazol-5-yl)cyclopentyl isopropylcarbamate]: the IC50 came to 58 nM against CDK2/Cyclin E1 and 1250 nM against CDK1/Cyclin B1.

Consider `COc1cc2c(cc1Nc1cc([C@@H]3CC[C@H](OC(=O)NC(C)C)C3)[nH]n1)S(=O)(=O)NC2` (relative stereo) [Example 182, cis-3-(3-((5-methoxy-1,1-dioxido-2,3-dihydrobenzo[d]isothiazol-6-yl)amino)-1H-pyrazol-5-yl)cyclopentyl isopropylcarbamate], for which the values for the IC50 on CDK2/Cyclin E1 and at CDK1/Cyclin B1 were 279 nM and 5580 nM, respectively.

`COc1cc2c(cc1Nc1cc([C@@H]3CC[C@H](OC(=O)NC(C)C)C3)[nH]n1)S(=O)(=O)NC2(C)C` (relative stereo) [Example 183, cis-3-(3-((5-methoxy-3,3-dimethyl-1,1-dioxido-2,3-dihydrobenzo[d]isothiazol-6-yl)amino)-1H-pyrazol-5-yl)cyclopentyl isopropylcarbamate]: the figures for the IC50 against CDK2/Cyclin E1 and against CDK1/Cyclin B1 were 1390 nM and 7570 nM, respectively.

As for `CC(C)NC(=O)O[C@H]1CC[C@@H](c2cc(Nc3cc(Cl)c4c(c3)S(=O)(=O)NC4)n[nH]2)C1` (relative stereo) [Example 184, cis-3-(3-((4-chloro-1,1-dioxido-2,3-dihydrobenzo[d]isothiazol-6-yl)amino)-1H-pyrazol-5-yl)cyclopentyl isopropylcarbamate], the values for the IC50 against CDK2/Cyclin E1 and on CDK1/Cyclin B1 were 1.5 nM and 4.1 nM, respectively.

For the compound `Cc1cc2c(cc1Nc1cc([C@@H]3CC[C@H](OC(=O)NC(C)C)C3)[nH]n1)S(=O)(=O)NC2` (relative stereo) [Example 185, cis-3-(3-((5-methyl-1,1-dioxido-2,3-dihydrobenzo[d]isothiazol-6-yl)amino)-1H-pyrazol-5-yl)cyclopentyl isopropylcarbamate], the values for the IC50 at CDK2/Cyclin E1 and against CDK1/Cyclin B1 were 239 nM and 1420 nM, respectively.

In the case of `CC1(NC(=O)O[C@H]2CC[C@@H](c3cc(Nc4ccc5c(c4F)S(=O)(=O)NC5)n[nH]3)C2)CC1` (relative stereo) [Example 187, cis-3-(3-((7-fluoro-1,1-dioxido-2,3-dihydrobenzo[d]isothiazol-6-yl)amino)-1H-pyrazol-5-yl)cyclopentyl(1-methylcyclopropyl)carbamate], the IC50 came out at 0.7 nM against CDK2/Cyclin E1 and 14 nM on CDK1/Cyclin B1.

Turning to `CC[C@H](C)NC(=O)O[C@H]1CC[C@@H](c2cc(Nc3ccc4c(c3F)S(=O)(=O)NC4)n[nH]2)C1` (relative stereo) [Example 188, cis-3-(3-((7-fluoro-1,1-dioxido-2,3-dihydrobenzo[d]isothiazol-6-yl)amino)-1H-pyrazol-5-yl)cyclopentyl((S)-sec-butyl)carbamate], the IC50 was found to be 0.8 nM against CDK2/Cyclin E1 and 29 nM against CDK1/Cyclin B1.

As to `CC(C)NC(=O)O[C@H]1CC[C@@H](c2cc(Nc3ccc4c(c3F)S(=O)(=O)N(C)C4)n[nH]2)C1` (relative stereo) [Example 190, cis-3-(3-((7-fluoro-2-methyl-1,1-dioxido-2,3-dihydrobenzo[d]isothiazol-6-yl)amino)-1H-pyrazol-5-yl)cyclopentyl isopropylcarbamate], the IC50 on CDK2/Cyclin E1 turned out to be 8.1 nM; against CDK1/Cyclin B1, 328 nM.

Consider `COCCN1Cc2ccc(Nc3cc([C@@H]4CC[C@H](OC(=O)NC(C)C)C4)[nH]n3)c(F)c2S1(=O)=O` (relative stereo) [Example 191, cis-3-(3-((7-fluoro-2-(2-methoxyethyl)-1,1-dioxido-2,3-dihydrobenzo[d]isothiazol-6-yl)amino)-1H-pyrazol-5-yl)cyclopentyl isopropylcarbamate], for which the IC50 turned out to be 9.3 nM against CDK2/Cyclin E1 and 191 nM against CDK1/Cyclin B1.

Consider `CC(C)NC(=O)O[C@H]1CC[C@@H](c2cc(Nc3ccc4c(c3F)S(=O)(=O)N(CCO)C4)n[nH]2)C1` (relative stereo) [Example 192, cis-3-(3-((7-fluoro-2-(2-hydroxyethyl)-1,1-dioxido-2,3-dihydrobenzo[d]isothiazol-6-yl)amino)-1H-pyrazol-5-yl)cyclopentyl isopropylcarbamate], for which the values for the IC50 at CDK2/Cyclin E1 and at CDK1/Cyclin B1 were 6 nM and 116 nM, respectively.

For the compound `CC(C)NC(=O)O[C@H]1CC[C@@H](c2cc(Nc3ccc4c(c3F)S(=O)(=O)N(C(C)C)C4)n[nH]2)C1` (relative stereo) [Example 193, cis-3-(3-((7-fluoro-2-isopropyl-1,1-dioxido-2,3-dihydrobenzo[d]isothiazol-6-yl)amino)-1H-pyrazol-5-yl)cyclopentyl isopropylcarbamate], the IC50 against CDK2/Cyclin E1 came out at 16 nM; against CDK1/Cyclin B1, 362 nM.

Turning to `CC(C)NC(=O)O[C@H]1CC[C@@H](c2cc(Nc3ccc4c(c3)C(C)(C)S(=O)(=O)N4)n[nH]2)C1` (relative stereo) [Example 194, cis-3-(3-((3,3-dimethyl-2,2-dioxido-1,3-dihydrobenzo[c]isothiazol-5-yl)amino)-1H-pyrazol-5-yl)cyclopentyl isopropylcarbamate], the IC50 was 3.7 nM on CDK2/Cyclin E1 and 86 nM on CDK1/Cyclin B1.

`CN1c2ccc(Nc3cc([C@@H]4CC[C@H](OC(=O)NC5CCC56CC6)C4)[nH]n3)cc2CS1(=O)=O` (relative stereo) [Example 196, cis-3-(3-((1-methyl-2,2-dioxido-1,3-dihydrobenzo[c]isothiazol-5-yl)amino)-1H-pyrazol-5-yl)cyclopentyl spiro[2.3]hexan-4-ylcarbamate]: the values for the IC50 at CDK2/Cyclin E1 and on CDK1/Cyclin B1 were 4.3 nM and 47 nM, respectively.

Turning to `COCC(C)NC(=O)O[C@H]1CC[C@@H](c2cc(Nc3ccc4c(c3)CS(=O)(=O)N4)n[nH]2)C1` (relative stereo) [Example 197, cis-3-(3-((2,2-dioxido-1,3-dihydrobenzo[c]isothiazol-5-yl)amino)-1H-pyrazol-5-yl)cyclopentyl(1-methoxypropan-2-yl)carbamate], the IC50 was determined as 12 nM at CDK2/Cyclin E1 and 119 nM against CDK1/Cyclin B1.

Take `O=C(NCCC(F)(F)F)O[C@@H]1CC[C@H](c2cc(Nc3ccc4c(c3)CS(=O)(=O)N4)n[nH]2)C1` (relative stereo) [Example 198, cis-3-(3-((2,2-dioxido-1,3-dihydrobenzo[c]isothiazol-5-yl)amino)-1H-pyrazol-5-yl)cyclopentyl(3,3,3-trifluoropropyl)carbamate]: the IC50 came out at 18 nM against CDK2/Cyclin E1 and 75 nM against CDK1/Cyclin B1.
